Laboratory results: US10111847B2, “Compounds and methods for modulating vascular injury” (The Regents of the University of California, priority 2012, dated 2018)

Experiments:
[1] = tested on: human saphenous vein endothelial (EC) cells; test: TNFα induced cellular ROS production (CellRox) in EC (Maresin-1); format: cell-based; settings: TNFα 1 ng/ml
Procedure: Mar-1. Cells were grown in 8-well chamber slides at a density of 15000 cells/well for 2 days for VSMCs and 50000 cells/well for 2 days for ECs in a 96 well plate. After treatments, cells were incubated with dihydroethidium (DHE, 3 μM, Invitrogen) or CellRox (Invitrogen Inc, 5 μM for ECs) in media for 30 minutes at 37° C. in a humidified chamber with 5% CO2 protected from light. DAPI nuclear counter staining was utilized for DHE staining. For DHE, fluorescence was detected with TRITC filter allowing the detection of the DHE emission wavelength of 590-620 nm. Fluorescence quantitation was performed using ImageJ analysis software. For ECs, fluorescence measurements were taken using a Spectramax M2e plate reader.
FIGS. 13A-13D. Representative merged images of DHE staining, counterstained with DAPI. (A), Negative control. (B), TNFα at 10 ng/ml for 4 hr. […] (E) Quantitative comparison of DHE staining intensity in the nucleus of human saphenous vein vascular smooth muscle (sv-VSMC) cells, treated with TNFα and 7S and 7R-Maresin-1 with and without pertussis toxin. (F) Quantitative comparison of cellular ROS production by CellRox (Life technologies, Carlsbad, Calif.) in human saphenous vein endothelial (EC) cells treated with TNFα (1 ng/nil) and 7S-Maresin-1 (N>=3). […]

[2] = tested on: human sv-VSMCs; test: PDGF-BB induced VSMC cell-shape measurement (phalloidin); format: cell-based; settings: 100 nM, 30 min; PDGF-BB 50 ng/ml 1 hr
Procedure: Cells were cultured in 8-well chamber slides (3,000 cells/well) and pretreated with MaR-1 or vehicle (0.1% ethanol) for 30 min followed by the addition of PDGF-BB (50 ng/ml) for 1 h. Cells were washed twice in phosphate-buffered saline (PBS), permeabilized with 0.1% Triton-X, and then fixed in 4% formaldehyde, labeled with Alexa Fluor 568 phalloidin (Invitrogen) and DAPI, and then mounted on glass slides. Cell area and length/width ratio were determined by outlining the cell dimensions and computing 2-dimensional area using GIMP image analysis software (GIMP, freeware; www.gimp.org). For each condition, dimensions were measured from 30 randomly selected cells, and all treatment conditions were performed in triplicate.
Human sv-VSMCs cultured in chamber slides were treated with 7S-Maresin-1 at 100 nM or vehicle for 30 min, followed by PDGF-BB, 50 ng/ml for 1 hr. Cells were then fixed, permeabilized and stained with phalloidin (Life technologies).
FIGS. 21A-21E. (A) Vehicle Control. (B) PDGF-BB, 50 ng/ml. (C) 7S-Maresin-1, 100 nm+PDGF-BB, 50 ng/ml. (D) 7S-Maresin-1, 100 nm+pertussis toxin, 10 ng/ml+PDGF-BB, 50 ng/ml. (E) Graphical summary of N=4 per group. P≤0.01, One-way ANOVA with Dunnett's post hoc test. *P<0.05 compared to PDGF-BB (50 ng/ml). †: P≤0.05 compared to PDGF-BB alone, unpaired t-test. ‡: P≤0.05 compared to PDGF-BB+7S-Maresin-1, unpaired t-test. Error bars: SEM.

[3] = tested on: rabbit femoral artery; test: Rabbit femoral artery balloon injury, neointimal hyperplasia at 28 days; format: in vivo, New Zealand White Rabbits; settings: 10 nM local; 28 days after injury; vehicle 0.38±0.04; P=0.002
Procedure: All animal experiments are performed under a protocol approved by University of California San Francisco Animal Care Committee. New Zealand White Rabbits (NZWR, Western Oregon Rabbit Company, Philomath, Oreg.) weighing 3 to 5 kg and maintained on a normal chow diet are used in all experiments. Animals are anesthetized for surgical procedures with intramuscular injection of ketamine (25 mg/kg) and xylazine (5 mg/kg), and maintained with inhalation of isoflurane. The balloon injury model is made as described by Conte et al. “Efficient repopulation of denuded rabbit arteries with autologous genetically modified endothelial cells,” Circulation. 1994; 89:2161-2169. Rabbits undergo bilateral external iliac and femoral artery injury with 2F Fogarty balloon catheter (Applied Medical Resources Corp. Rancho Santa Margarita, Calif.). After balloon injury RvD2 (10 nM, Cayman chemical, Ann Arbor, Mich.) is infused to luminal area of the right femoral artery and control vehicle (normal saline with 0.1% ethanol) is infused to the left femoral artery, and then left undisturbed for 20 minutes. For evaluation of acute effects the rabbits are euthanized at 3 days after injury by intravenous overdose of sodium Nembutal. The femoral arteries are harvested and cryosection is made for immunohistochemistry, and total RNA from treated and control tissue is isolated. […]

Compound | TNF-α-induced superoxide production in EC [1] | PDGF-BB induced vascular smooth muscle cell shape change [2] | neointimal area [3]
CC/C=C\C/C=C\C[C@H](O)\C=C/C=C/C=C/[C@@H](O)C/C=C\CCC(=O)O [7S-Maresin-1, 7S,14R-dihydroxydocosa-4Z,8E,10Z,12Z,16Z,19Z-hexaenoic acid] | significantly reduced | Alters | –
CC/C=C\C[C@H](O)[C@H](O)/C=C/C=C/C=C\C=C\[C@@H](O)C/C=C\CCC(=O)O [RvD2, resolvin D2] | – | – | 0.27±0.03 mm^2
